Among the data in patent US6589952B2, “Imidazo[1,2-a]pyrazines for the treatment of neurological disorders” (Bristol-Myers Squibb Pharma Company, priority 2000, dated 2003) are melting point values, retold here.

Usually melting point stands for the temperature of the solid-liquid transition. Take `CCCC(O)c1c(CC)nc2c(-c3ccc(Cl)cc3Cl)nccn12` (stereo not shown) [Example 7, 8-(2,4-dichlorophenyl)-2-ethyl-3-(1-hydroxybutyl)imidazo[1,2-a]pyrazine]: the melting point was in the range of 159 to 160 °C.
